The values that follow come from patent US5646159A (priority 1994, dated 1997).

Data set [1] has as its system L-1210 leukemia. Briefly: L-1210 Life Prolongation Assay. Type of data set: in vivo, mice. From the text:
L-1210 Life Prolongation Assay^a
^a Intraperitoneal transplants.
^b Q04DX02 = ip injection on days 1 and 5.
Q04HX02 = iv drug dosing on hours 1 and 5.
^c % TC = (median survival time of treated/control animals) ×
^d log of initial tumor cell population minus log of tumor cell
population at the end of treatment. […]

Data set [2] is described as follows: Toxicity by weight loss in test animals (Protocol 4; toxic = weight loss of ≥4.0 grams); toxic dose. The format is in vivo, mice. The source says:
By "non-toxic", as used herein with reference to the ester compounds of the present invention, is meant a compound which is not toxic according to Protocal 4, section 4.301(b)(3) where toxicity is defined as a weight loss of ≥4.0 grams as reported in R. I. Geran, N. H. Greenberg, M. M. MacDonald, A. M. Schumacher and B. J. Abbott, Cancer Chemotherapy Reports, Part 3, Vol. 3, No. 2, September 1972.

Data set [3] deals with T1, topoisomerase I (Bos taurus, UniProt F1MN93).
T1 sequence (F1MN93 1-767): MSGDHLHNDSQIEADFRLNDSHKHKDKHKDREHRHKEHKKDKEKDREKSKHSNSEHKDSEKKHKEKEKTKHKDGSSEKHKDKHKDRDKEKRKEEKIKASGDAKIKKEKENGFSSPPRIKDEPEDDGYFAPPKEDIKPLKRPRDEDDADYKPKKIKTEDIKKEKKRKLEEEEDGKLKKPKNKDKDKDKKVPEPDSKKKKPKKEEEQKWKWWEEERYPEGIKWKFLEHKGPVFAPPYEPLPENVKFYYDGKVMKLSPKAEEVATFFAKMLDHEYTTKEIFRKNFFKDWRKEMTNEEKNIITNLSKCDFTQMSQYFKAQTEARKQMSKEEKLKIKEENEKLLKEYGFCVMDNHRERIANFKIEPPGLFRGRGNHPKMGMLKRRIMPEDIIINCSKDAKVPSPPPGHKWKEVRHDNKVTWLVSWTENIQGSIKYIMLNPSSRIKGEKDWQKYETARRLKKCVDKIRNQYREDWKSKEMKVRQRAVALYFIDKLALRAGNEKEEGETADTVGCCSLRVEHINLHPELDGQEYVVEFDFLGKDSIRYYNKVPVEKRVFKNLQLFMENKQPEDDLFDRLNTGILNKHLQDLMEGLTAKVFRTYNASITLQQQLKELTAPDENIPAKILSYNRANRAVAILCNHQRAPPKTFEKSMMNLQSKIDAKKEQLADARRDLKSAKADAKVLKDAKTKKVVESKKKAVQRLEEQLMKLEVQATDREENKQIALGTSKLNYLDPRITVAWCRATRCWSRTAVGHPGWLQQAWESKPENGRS
Briefly: Cleavable complex assay (topoisomerase I inhibition). Type of data set: biochemical. The conditions noted are these: S.E. in own column, read-out: IC50, minimum drug concentration that inhibited the cleavable complex formation by 50%. The source says:
This relaxation is brought about by breakage of one of the DNA strands in the formation of a covalent topoisomerase I-DNA complex.

Data set [4] relates to leukemia and tumor. The conditions noted are these: Wall 1969; cited from earlier work.
For data set [5] the following is noted: background statement; cited from earlier work.
Data set [6] concerns P388 leukemia. The conditions noted are these: Wall 1983; cited from earlier work.
The conditions of data set [7]: physiological pH, 7.2; Burke et al. 1993; cited from earlier work.
Where [8] appears, read: at highest active dose, ip, Q04DX02 (days 1 and 5).
The mark [9] stands for this setting: at highest active dose, iv, Q04HX02 (hours 1 and 5).
The mark [10] stands for this setting: ip, Q04DX02 (ip injection on days 1 and 5), intraperitoneal transplants.
[11] abbreviates: iv, Q04HX02 (iv drug dosing on hours 1 and 5), intraperitoneal transplants.

SMILES strings stand for the structures. Counter-ions that a name gives are not always drawn. Bounds are passed on as bounds.

Regarding `CCC1(OC(=O)CN)C(=O)OCc2c1cc1n(c2=O)Cc2cc3c(N)cccc3nc2-1` (racemic) [9-amino-20-glycinyl-(20RS)-CPT.HCl, 9-amino-20-O-glycinyl-(20RS)-CPT·HCl], the “% T/C = (median survival time of treated/control animals) × 100” value in data set [1] (setting [8]) is 132%; in data set [1] (setting [9]), 168%. For the same compound, the highest active dose turned out to be 5 mg/kg in data set [1] (mouse, in vivo) and 10 mg/kg in data set [1] (mouse, in vivo, ip). The “KE, log of initial tumor cell population minus log of tumor cell population at the end of treatment” value is reported as -1.00 in data set [1] (mouse, in vivo, ip) and 1.67 in data set [1] (mouse, in vivo, iv). Besides, the active dose range in data set [1] (mouse, in vivo, ip) was 10 mg/kg; in data set [1] (mouse, in vivo, iv), 2.5 to 5.0 mg/kg. Also, the cures in data set [1] (mouse, in vivo, ip) was 0; in data set [1] (mouse, in vivo, iv), 1/6. Also, the “toxic dose (not toxic at dose)” value in data set [2] (ip, Q04DX02 (days 1 and 5)) is on record as “NT^e at 10”; in data set [2] (iv, Q04HX02 (hours 1 and 5)) it was “NT at 5”.

On to `CCC1(O)C(=O)OCc2c1cc1n(c2=O)Cc2cc3cc4c(cc3nc2-1)OCO4` (racemic) [10,11-(methylenedioxy)-(20RS)-CPT, 10,11-methylenedioxy-20(RS)-camptothecin, reference compound], for which, in data set [1] (setting [8]), the “% T/C = (median survival time of treated/control animals) × 100” value came out at 325%. Besides, in data set [1] (ip, Q04DX02 (days 1 and 5)), the “KE, log of initial tumor cell population minus log of tumor cell population at the end of treatment” value is listed as 5.97; the active dose range lay within 2 to 4 mg/kg; the cures is 2/6. The highest active dose in data set [1] (setting [10]) is listed as 2 mg/kg. In data set [2] (ip, Q04DX02 (days 1 and 5)), this compound came in with a toxic dose of 8.0 mg/kg.

In the case of `CCC1(OC(=O)CN)C(=O)OCc2c1cc1n(c2=O)Cc2cc3cc4c(cc3nc2-1)OCO4` (racemic) [10,11-MDO-20-O-glycinyl-(20RS)-CPT·HCl], in data set [1] (iv), the “% T/C = (median survival time of treated/control animals) × 100” value is listed as 236%. Further, in data set [1] (iv, Q04HX02 (hours 1 and 5)), the “KE, log of initial tumor cell population minus log of tumor cell population at the end of treatment” value is reported as 5.97; the active dose range lay within 1.25 to 20 mg/kg; the cures was 3/6. This compound displayed a highest active dose in data set [1] (setting [11]) of 10 mg/kg. In addition, the IC50 in data set [3] worked out at 430 nM. For the same compound, the toxicity in words result in data set [2] (administered at 20 mg/kg) is “non-toxic”. Moreover, in data set [2] (ester vs parent 10,11-methylenedioxy-20(RS)-camptothecin), the “greater amount of the ester that can be administered than the parent compound” value was 10 fold. Also, the “toxic dose (not toxic at dose)” value in data set [2] (iv, Q04HX02 (hours 1 and 5)) is “NT at 20”.

Take `CCC1(OC(=O)CN)C(=O)OCc2c1cc1n(c2=O)Cc2cc3cc(N)ccc3nc2-1` (racemic) [10-amino-20-glycinyl-(20RS)-CPT.HCl, 10-amino-20-O-glycinyl-(20RS)-CPT·HCl]: the “% T/C = (median survival time of treated/control animals) × 100” value in data set [1] (setting [9]) is 225%. In addition, in data set [1] (iv, Q04HX02 (hours 1 and 5)), the “KE, log of initial tumor cell population minus log of tumor cell population at the end of treatment” value is above 5.97; the active dose range was 1.25 to 20 mg/kg; the cures amounted to 0. The compound further yielded a highest active dose in data set [1] (setting [11]) of 20 mg/kg. The “toxic dose (not toxic at dose)” value in data set [2] (iv, Q04HX02 (hours 1 and 5)) is on record as “NT at 20”.

Consider `CCC1(O)C(=O)OCc2c1cc1n(c2=O)Cc2cc3cc(N)ccc3nc2-1` (racemic) [10-amino-(20RS)-CPT, reference compound], for which, in data set [1] (ip), the “% T/C = (median survival time of treated/control animals) × 100” value came out at 365%. Moreover, in data set [1] (ip, Q04DX02 (days 1 and 5)), the “KE, log of initial tumor cell population minus log of tumor cell population at the end of treatment” value is given as 5.97; the active dose range fell in the range of 1.35 to 3.74 mg/kg; the cures is listed as 3/6. In data set [1] (setting [10]), this compound gave a highest active dose of 3.75 mg/kg. In data set [2] (ip, Q04DX02 (days 1 and 5)), the toxic dose worked out at 6.25 mg/kg.

As to `CC[C@@]1(O)C(=O)OCc2c1cc1n(c2=O)Cc2cc3c(N)cccc3nc2-1` [9-amino-(20S)-CPT, reference compound], in data set [1] (ip, Q04DX02 (days 1 and 5)), the “KE, log of initial tumor cell population minus log of tumor cell population at the end of treatment” value was found to be 4.8; the active dose range is 5.3 to 12 mg/kg; the cures was 1/6. In data set [1] (setting [10]), this compound had a highest active dose of 12 mg/kg. Also, in data set [1] (mouse, in vivo, ip), the “% T/C = (median survival time of treated/control animals) × 100” value is given as 250%. In data set [2] (ip, Q04DX02 (days 1 and 5)), the toxic dose came out at 10 mg/kg.

As for `CCC1C(=O)OCc2c1cc1n(c2=O)Cc2cc3ccccc3nc2-1` (centres unmarked) [20-desoxy-CPT], the “antileukemia and antitumor activity” value in data set [4] was “inactive”.

With `CCC1(OC(C)=O)C(=O)OCc2c1cc1n(c2=O)Cc2cc3ccccc3nc2-1` (stereo not drawn) [CPT-20α-acetate], the “antileukemia and antitumor activity” value in data set [4] is “inactive”.

Consider `CC[C@@]1(O)C(=O)OCc2c1cc1n(c2=O)Cc2cc3ccccc3nc2-1` [camptothecin, Camptothecin], for which the water solubility result in data set [5] is reported as “water insoluble”. Also, the “activity in the P388 leukemia assay” value in data set [6] was “High activity”. Moreover, the lactone ring opening entry in data set [7] is “opens to a physiologically inactive open form”.
